The values below come from patent US12084456B2, “Isocarbostyril alkaloids and functionalization thereof” (The Board of Trustees of the University of Illinois, priority 2018, dated 2024).

≈ marks a conversion by molar mass, not a printed value. Where two headings read alike, the source gives them in different places.

One data set relates to HCT116 cells. Briefly: Cell viability assay (Alamar Blue, 72 h), HCT116. In kind it is cell-based, human. The settings on record: for IC50: read-out: Activity data for compounds: HCT116. (In general: Alamar Blue is a resazurin reagent that responds to reducing activity.)
A short description of data set [1]: Mouse liver microsome assay. It is filed as in vitro ADME. The settings on record: mouse liver microsomes, 3 h, percentage remaining. The method, then:
A mixture of PBS (pH 7.4), NADPH regenerating system solution A (Corning Life Sciences), and NADPH regenerating system solution B (Corning Life Sciences) was incubated at 37° C. in a shaking incubator for 5 min. Next, compound was added in DMSO (final concentration 50 μM, 0.5% DMSO) before ice-cold mouse liver microsomes (Thermo Fisher, male CD-1 mice, pooled) were added (final protein concentration of 1 mg/mL). An aliquot was immediately removed, quenched with an equal volume of 100 μM internal standard in ice-cold acetonitrile, and centrifuged at 13,000 rcf for 3 min. The supernatant was diluted 1:5 in ddH2O and analyzed by LC-MS. The reactions were incubated at 37° C. in a shaking incubator for 3 h. A second aliquot was removed, quenched and diluted as before and analyzed by LC-MS. The ratio of the areas of analyte:internal standard at 3 hours was compared to the ratio at t0 to determine the percentage of compound remaining. Analysis was performed using a Kinetex® Evo C-18 50 mm column running a gradient from 3%→95% MeCN in water over 9 minutes at 0.4 mL/min. Internal standard=(+)-pancratistatin tetaacetate S4.

In another data set the test system is A549 cells. The settings on record: for anticancer activity / cytotoxicity in words: human lung and colon cancer cell lines (A549 and HCT116); for IC50: read-out: Activity data for compounds: A549.
Data set [2] can be described thus: Solubility assay (shake-flask method). In kind it is physicochemical. The settings on record: for solubility at 24 h: thermodynamic from solid, water, stirred 24 hours, shake-flask, LCMS, read-out: aq. Solubility; for increased solubility when compared to natural counterpart: 47 vs narciclasine, 52 vs pancratistatin. As for the experimental part: A calibration was made for each compound by diluting a 1 mM DMSO solution to 10, 25, 50, 75, and 100 μM and then measuring their relative UV absorbance by LC-MS using a Kinetex© Evo C-18 50 mm column running a gradient from 5%→90% MeCN in water over 4 minutes at 0.4 mL/min.
The aqueous solubility of each compound was measured using the shake-flask method. 1.0 mg of compound was diluted to 40 mM with water then stirred for 24 hours. Each solution was then filtered, diluted 10-fold, and analyzed by LCMS. The relative UV absorbance of each compound was then compared to its calibration curve to quantify its aqueous solubility.

[3] abbreviates: HCT116 human colon cancer cells, 72 h, Alamar Blue.
Setting [4] is: A549 human lung cancer cells, 72 h, Alamar Blue.
[5] abbreviates: HCT-116, HCT116 human colon cancer cells, 72 h, Alamar Blue.

Consider `[2H]C1([2H])Oc2cc3c(c(O)c2O1)C(=O)N[C@@H]1C3=C[C@H](O)[C@@H](O)[C@H]1O` [4-d2, (+)-narciclasine 4-d2], for which the IC50 with HCT116 cells (setting [3]) came to 0.04 µM; in the data set with A549 cells (setting [4]) it was 0.07 µM. Moreover, in data set [1], the “greater metabolic stability when compared to narciclasine (4)” value was roughly 30%. Besides, the “anticancer activity / cytotoxicity in words” value in the data set with A549 cells is on record as “equipotent activity”.
As to `[2H]C1=C2c3cc4c(c(O)c3C(=O)N[C@@]2([2H])[C@]([2H])(O)[C@]([2H])(O)[C@@]1([2H])O)OCO4` [4-d5, (+)-narciclasine 4-d5], the figures for the IC50 in the data set with HCT116 cells (setting [3]) and with A549 cells (setting [4]) were 0.043 µM and 0.066 µM, respectively. For the same molecule, the “greater metabolic stability when compared to narciclasine (4)” value in data set [1] was roughly 30%. Besides, in the data set on A549 cells, the “anticancer activity / cytotoxicity in words” value is “equipotent activity”.
On to `O=C1N[C@H]2[C@H](O)[C@H](O)[C@@H](O)[C@H](O)[C@@H]2c2cc3c(cc21)OCO3` [compound 1, (+)-7-deoxypancratistatin, reference compound], for which the IC50 stood at 1.5 µM in the data set on HCT116 cells (Homo sapiens, HCT-116, 72 h) and 2.9 µM in the data set on A549 cells.
Take `O=C1N[C@H]2[C@H](O)[C@H](O)[C@@H](O)[C@H](O)[C@@H]2c2cc3c(c(O)c21)OCO3` [compound 2, (+)-pancratistatin, reference compound]: the IC50 in the data set with HCT116 cells (Homo sapiens, HCT-116, 72 h) came out at 0.44 µM; in the data set on A549 cells, 0.75 µM. In addition, the solubility at 24 h in data set [2] worked out at 560 ± 70 µg/mL (≈ 1.72 mM).
On to `O=C1N[C@@H]2C(=C[C@H](O)[C@@H](O)[C@H]2O)c2cc3c(cc21)OCO3` [compound 3, (+)-lycoricidine, reference compound], for which the figures for the IC50 in the data set on HCT116 cells (setting [5]) and in the data set with A549 cells (setting [4]) were 0.54 µM and 0.73 µM, respectively.
Regarding `O=C1N[C@@H]2C(=C[C@H](O)[C@@H](O)[C@H]2O)c2cc3c(c(O)c21)OCO3` [compound 4, (+)-narciclasine, reference compound], the values for the IC50 in the data set on HCT116 cells (setting [3]) and in the data set on A549 cells (setting [4]) were 0.0324 µM and 0.056 µM, respectively.
As to `C=CCc1c2c(cc3c1C(=O)N[C@@H]1C3=C[C@H](O)[C@@H](O)[C@H]1O)OCO2` [compound 38, 7-allyl lycoricidine], the IC50 in the data set with HCT116 cells (Homo sapiens, HCT-116, 72 h) was greater than 100 µM; in the data set with A549 cells it was greater than 100 µM.
As for `O=C1N[C@@H]2C(=C[C@H](O)[C@@H](O)[C@H]2O)c2cc3c(c(C(=O)c4ccccc4)c21)OCO3` [compound 39, 7-oxophenyl lycoricidine], the IC50 in the data set on HCT116 cells (Homo sapiens, HCT-116, 72 h) was 35 µM; in the data set with A549 cells, 44 µM.
With `COCc1c2c(cc3c1C(=O)N[C@@H]1C3=C[C@H](O)[C@@H](O)[C@H]1O)OCO2` [compound 40, 7-methoxymethyl lycoricidine], the IC50 with HCT116 cells (Homo sapiens, HCT-116, 72 h) is 50 µM; with A549 cells it was 48 µM.
On to `O=C1N[C@@H]2C(=C[C@H](O)[C@@H](O)[C@H]2O)c2cc3c(c(CO)c21)OCO3` [compound 41, 7-hydroxymethyl lycoricidine], for which the IC50 was greater than 100 µM in the data set on HCT116 cells (Homo sapiens, HCT-116, 72 h) and greater than 100 µM in the data set with A549 cells. Further, the “anticancer activity / cytotoxicity in words” value in the data set on A549 cells is given as “less potent”.
As for `COC(=O)c1c2c(cc3c1C(=O)N[C@@H]1C3=C[C@H](O)[C@@H](O)[C@H]1O)OCO2` [compound 42, 7-carboxymethyl lycoricidine], the IC50 in the data set with HCT116 cells (Homo sapiens, HCT-116, 72 h) came to 29 µM; with A549 cells it was 39 µM.
For the molecule `O=C1N[C@@H]2C(=C[C@H](O)[C@@H](O)[C@H]2O)c2cc3c(c(C(=O)O)c21)OCO3` [compound 43, lycoricidine-7-carboxylic acid], the IC50 with HCT116 cells (Homo sapiens, HCT-116, 72 h) was 80 µM; in the data set with A549 cells (setting [4]) it was greater than 100 µM.
For `CCOC(=O)Cc1c2c(cc3c1C(=O)N[C@@H]1C3=C[C@H](O)[C@@H](O)[C@H]1O)OCO2` [compound 44, ethyl 2-(7-lycoricidinyl)acetate], the IC50 worked out at 80 µM with HCT116 cells (setting [5]) and 74 µM in the data set on A549 cells (setting [4]).
In the case of `O=C(O)Cc1c2c(cc3c1C(=O)N[C@@H]1C3=C[C@H](O)[C@@H](O)[C@H]1O)OCO2` [compound 45, 2-(7-lycoricidinyl)acetic acid], the IC50 in the data set on HCT116 cells (Homo sapiens, HCT-116, 72 h) amounted to 70 µM; in the data set with A549 cells it was 89 µM.
Regarding `N#Cc1c2c(cc3c1C(=O)N[C@@H]1C3=C[C@H](O)[C@@H](O)[C@H]1O)OCO2` [compound 46, 7-cyanolycoricidine], in the data set with HCT116 cells, the “activity compared to lycoricidine (3) in HCT116 cells” value is reported as “increased activity when compared to lycoricidine”. The IC50 with HCT116 cells (Homo sapiens, HCT-116, 72 h) stood at 0.48 µM; with A549 cells, 1.2 µM.
In the case of `Nc1c2c(cc3c1C(=O)N[C@@H]1C3=C[C@H](O)[C@@H](O)[C@H]1O)OCO2` [compound 47, 7-aminolycoricidine], the IC50 in the data set on HCT116 cells (Homo sapiens, HCT-116, 72 h) stood at 0.39 µM; in the data set on A549 cells it was 0.38 µM. For the same molecule, the “increased solubility when compared to natural counterpart” value in data set [2] is listed as 11 fold. Further, the solubility at 24 h in data set [2] is 3740 ± 200 µg/mL (≈ 12.2 mM).
As to `CNc1c2c(cc3c1C(=O)N[C@@H]1C3=C[C@H](O)[C@@H](O)[C@H]1O)OCO2` [compound 48, N-methyl-7-aminolycoricidine], the values for the IC50 with HCT116 cells (setting [5]) and with A549 cells (setting [4]) were 12 µM and 28 µM, respectively. The “anticancer activity / cytotoxicity in words” value with A549 cells was “did not show significant cytotoxicity”.
As for `CC(=O)Nc1c2c(cc3c1C(=O)N[C@@H]1C3=C[C@H](O)[C@@H](O)[C@H]1O)OCO2` [compound 49, 7-acetamidelycoricidine], the IC50 in the data set on HCT116 cells (setting [5]) and in the data set with A549 cells (setting [4]) was greater than 100 µM each time. Further, the “anticancer activity / cytotoxicity in words” value in the data set on A549 cells was “did not show significant cytotoxicity”.
For the molecule `O=C1N[C@@H]2C(=C[C@H](O)[C@@H](O)[C@H]2O)c2cc3c(c(N4CCCC4)c21)OCO3` [compound 50], the IC50 with HCT116 cells (setting [5]) and with A549 cells (setting [4]) was greater than 100 µM throughout. The “anticancer activity / cytotoxicity in words” value with A549 cells is listed as “did not show significant cytotoxicity”.
`O=C1N[C@@H]2C(=C[C@H](O)[C@@H](O)[C@H]2O)c2cc3c(c(N4CCOCC4)c21)OCO3` [compound 51, 7-(4-morpholinyl)lycoricidine]: the IC50 came out at 33 µM in the data set with HCT116 cells (setting [5]) and 39 µM in the data set on A549 cells (setting [4]). Also, the “anticancer activity / cytotoxicity in words” value with A549 cells is listed as “did not show significant cytotoxicity”.
With `Nc1c2c(cc3c1C(=O)N[C@H]1[C@H](O)[C@H](O)[C@@H](O)[C@H](O)[C@H]31)OCO2` [compound 52, 7-aminopancratistatin], the IC50 in the data set with HCT116 cells (Homo sapiens, HCT-116, 72 h) worked out at 3.4 µM. Besides, in data set [2], the “increased solubility when compared to natural counterpart” value was determined as 6 fold and the solubility at 24 h came out at 3460 ± 140 µg/mL (≈ 10.7 mM). Also, in the data set with A549 cells, the IC50 was determined as 9 µM.
Regarding `COc1cccc2c1C(=O)c1c(O)c3c(c(O)c1C2=O)C[C@@](O)(C(=O)CO)C[C@@H]3O[C@H]1C[C@H](N)[C@H](O)[C@H](C)O1` [doxorubicin, reference compound], the results for the IC50 with HCT116 cells (setting [5]) and with A549 cells (setting [4]) were 0.147 µM and 0.22 µM, respectively.

A word on the solubility: it is the dissolved amount per volume that the medium holds.
